Assay [1] relates to M. abscessus ATCC 19977T deficient for the expression of the cyt-bcc:aa3 (ΔqcrCAB). The assay is described as follows: ATP levels in M. abscessus deficient for cyt-bcc:aa3 (ΔqcrCAB), 2-fold dose-response. The class given is cell-based, Mycobacterium abscessus. The note with it: Mycobacteroides abscessus, read-out: ATP IC50 ΔgcrCAB. On the procedure:
(§1) The compounds described and provided herein were evaluated for their potential to inhibit Cytochrome BD oxidase in Mycobacterium abscessus. M. abscessus ATCC 19977T wild-type (WT) and deficient for the expression of the cyt-bcc:aa3 (ΔqcrCAB) were treated with a 2-fold dose-response (starting from 40 μM) of the drugs. ATP levels were measured after 6 to 15 hours of incubation using a commercial kit.
(§2) M. abscessus ATCC 19977T wild-type (WT) and deficient for the expression of the cyt-bcc:aa3 (ΔqcrCAB) were treated with a 2-fold dose-response (starting from 40 μM) of the drugs. ATP levels were measured after 6 to 15 hours of incubation using a commercial kit.

Assay [2] concerns M. abscessus ATCC 19977T wild-type (WT). The assay is described as follows: ATP levels in M. abscessus wild-type, 2-fold dose-response. The class given is cell-based, Mycobacterium abscessus. The note with it: Mycobacteroides abscessus, read-out: ATP IC50 WT. How it is done: as §1, §2
A further assay has as its system M. abscessus. Nature of the assay: Killing of M. abscessus by clofazimine with or without Compound 12 (FIG. 1).

For `Cc1cc2nc(NCCc3ccc(C(F)(F)F)cc3)c3ccccc3n2n1` [Compound 1, 2-methyl-N-(4-(trifluoromethyl)phenethyl) pyrazolo[1,5-a]quinazolin-5-amine], the IC50 in assay [1] was 12.1 µM; in assay [2], more than 40 µM.

For the molecule `Cc1cc2nc(NC3CC(C)(C)CC(C)(C)C3)c3ccccc3n2n1` [Compound 2, 2-methyl-N-(3,3,5,5-tetramethylcyclohexyl) pyrazolo[1,5-a] quinazolin-5-amine], the IC50 in assay [1] and in assay [2] was more than 40 µM in each case.

`Cc1cc2nc(NC3CCC(F)(F)CC3)c3ccccc3n2n1` [Compound 3, N-(4,4-difluorocyclohexyl)-2-methylpyrazolo[1,5-a] quinazolin-5-amine]: the results for the IC50 in assay [1] and in assay [2] were 20 µM and more than 40 µM, respectively.

Regarding `Cc1cc2nc(NC34CC5CC(CC(C5)C3)C4)c3ccccc3n2n1` [Compound 4, N-((3s,5s,7s)-adamantan-1-yl)-2-methylpyrazolo[1,5-a] quinazolin-5-amine], the IC50 in assay [1] was 9.73 µM; in assay [2] it was more than 40 µM.

`Cc1cc2nc(NC3CCCCC3)c3ccccc3n2n1` [Compound 5, N-cyclohexyl-2-methylpyrazolo[1,5-a] quinazolin-5-amine]: the values for the IC50 in assay [1] and in assay [2] were 6.89 µM and more than 40 µM, respectively.

As for `Cc1cc2nc(NCc3ccc(N4CCN(c5ccc(F)cc5)CC4)cc3)c3ccccc3n2n1` [Compound 6, N-(4-(4-(4-fluorophenyl)piperazin-1-yl)benzyl)-2-methylpyrazolo[1,5-a] quinazolin-5-amine], the half-inhibitory concentration (IC50) in assay [1] and in assay [2] was more than 40 µM throughout.

For the molecule `Cc1cc2nc(Cl)c3ccccc3n2n1` [Compound 7, S-chloro-2-methylpyrazolo[1,5-a] quinazoline], the IC50 in assay [1] and in assay [2] was more than 40 µM in each case.

`Cc1cc2nc(NC3CCCC3)c3ccccc3n2n1` [Compound 8, N-cyclopentyl-2-methylpyrazolo[1,5-a] quinazolin-5-amine]: the IC50 in assay [1] is 15.3 µM; in assay [2], more than 40 µM.

As to `Cc1cc2nc(NC3CCCCCCC3)c3ccccc3n2n1` [Compound 9, N-cyclooctyl-2-methylpyrazolo[1,5-a] quinazolin-5-amine], the results for the IC50 in assay [1] and in assay [2] were 25.9 µM and more than 40 µM, respectively.

In the case of `Cc1cc2nc(NC3CCCCCC3)c3ccccc3n2n1` [Compound 12, N-cycloheptyl-2-methylpyrazolo[1,5-a] quinazolin-5-amine], the IC50 in assay [1] is 17.4 µM; in assay [2], more than 40 µM. In addition, the “Synergy with clofazimine to kill M. abscessus” value with M. abscessus (combination of Compound 12 with clofazimine, FIG. 1) was “synergizes with clofazimine to kill M. abscessus”.

As to `Cc1cc2nc(Nc3ccc(Oc4ccc(C(F)(F)F)cc4)cc3)c3ccccc3n2n1` [Compound 14, 2-methyl-N-(4-(4-(trifluoromethyl)phenoxy)phenyl)pyrazolo[1,5-a] quinazolin-5-amine], the IC50 in assay [1] and in assay [2] was more than 40 µM throughout.

Turning to `Cc1cc2nc(N[C@H]3CCC[C@@H](c4ccc(C(F)(F)F)cc4)C3)c3ccccc3n2n1` [Compound 15A, 2-methyl-N-((1S,3R)-3-(4-(trifluoromethyl)phenyl)cyclohexyl)pyrazolo[1,5-a] quinazolin-5-amine], the IC50 was 6.6 µM in assay [1] and more than 40 µM in assay [2].

For the molecule `FC(F)(F)c1ccc([C@@H]2CCC[C@H](Nc3nc4ccnn4c4ccccc34)C2)cc1` [Compound 16A, N-((1S,3R)-3-(4-(trifluoromethyl)phenyl)cyclohexyl)pyrazolo[1,5-a] quinazolin-5-amine], the IC50 in assay [1] was 32.8 µM; in assay [2] it was more than 40 µM.

Consider `Cc1cc2nc(NC3CC4(CCC4)C3)c3ccccc3n2n1` [Compound 17, 2-methyl-N-(spiro[3.3]heptan-2-yl)pyrazolo[1,5-a] quinazolin-5-amine], for which the IC50 in assay [1] is 3.2 µM; in assay [2] it was more than 40 µM.

As to `Cc1cc2nc(NC3CCC3)c3ccccc3n2n1` [Compound 18, N-cyclobutyl-2-methylpyrazolo[1,5-a] quinazolin-5-amine], the results for the IC50 in assay [1] and in assay [2] were 9.7 µM and more than 40 µM, respectively.

For `Cc1cc2nc(N[C@@H]3C[C@H]3c3ccc(F)c(F)c3)c3ccccc3n2n1` [Compound 19A, N-((1R,2S)-2-(3,4-difluorophenyl)cyclopropyl)-2-methylpyrazolo[1,5-a] quinazolin-5-amine], the IC50 in assay [1] was 18.7 µM; in assay [2], more than 40 µM.

As to `Cc1cc2nc(NCC3CCCCC3)c3ccccc3n2n1` [Compound 21, N-(cyclohexylmethyl)-2-methylpyrazolo[1,5-a] quinazolin-5-amine], the IC50 was 12.1 µM in assay [1] and more than 40 µM in assay [2].

Consider `Cc1cc2nc(NCC3CC3)c3ccccc3n2n1` [Compound 22, N-(cyclopropylmethyl)-2-methylpyrazolo[1,5-a] quinazolin-5-amine], for which the IC50 is 19.6 µM in assay [1] and more than 40 µM in assay [2].

With `Cc1cc2nc(NC3CCC(C(F)(F)F)CC3)c3ccccc3n2n1` (centres unmarked) [Compound 23, 2-methyl-N-(4-(trifluoromethyl)cyclohexyl) pyrazolo[1,5-a] quinazolin-5-amine], the half-maximal inhibitory concentration (IC50) in assay [1] is 9 µM; in assay [2], more than 40 µM.

With `Cc1cc2nc(NC3CCC(C)CC3)c3ccccc3n2n1` (centres unmarked) [Compound 24, 2-methyl-N-(4-methylcyclohexyl)pyrazolo [1,5-a]quinazolin-5-amine], the IC50 in assay [1] was 9.2 µM; in assay [2] it was more than 40 µM.

For `Cc1cc2nc(NC3CCC(C(C)C)CC3)c3ccccc3n2n1` (centres unmarked) [Compound 25], the IC50 in assay [1] was 2.6 µM; in assay [2], more than 40 µM.

For `Cc1cc2nc(NC3CCC(C(C)(C)C)CC3)c3ccccc3n2n1` (centres unmarked) [Compound 26, N-(4-(tert-butyl)cyclohexyl)-2-methylpyrazolo[1,5-a] quinazolin-5-amine], the IC50 in assay [1] is 4.4 µM; in assay [2], more than 40 µM.

As to `CC(C)/N=c1\cc2n(-c3ccc(Cl)cc3)c3ccccc3nc-2cc1Nc1ccc(Cl)cc1` [clofazimine, reference compound], in the assay with M. abscessus (clofazimine alone), the “Type of activity of clofazimine against M. abscessus, tested alone” value is “bacteriostatic”. The “Type of activity of clofazimine against M. abscessus in the presence of Compound 12” value in the assay on M. abscessus (in the presence of Compound 12) was “bactericidal”.

The values above are taken from patent US20250282784A1, “CYTOCHROME BD OXIDASE INHIBITORS AND USES THEREOF” (UNIVERSITY OF NOTRE DAME DU LAC, priority 2022, published 2025).
